Source: patent US9782379B2, “Use of protectin DX for the stimulation of muscular IL-6 secretion” (Universite Laval, priority 2013, dated 2017)

Legend:
J77A4 macrophages = assay: IL-6 release from cultured macrophages in the absence of palmitate stimulation; assay type: cell-based, murine
Text: (a-b) Skeletal muscle and liver IL-6 protein expression. (c) Total plasma adiponectin. (d) Immunoblots for pAMPK thr172 and total AMPK in skeletal muscle. (e) Immunoblots for pSTAT-3 ser727 and total STAT-3 in liver. Quantification of densitometry analyses for immunoblots are shown below the representative gels. In each case lanes were run on the same gel but were noncontiguous. (f-h) Relative mRNA expression for Ppargc1, Pck1 and G6Pc in liver. All genes were normalized to GAPDH using the delta delta CT method. All data are mean±SEM, n=6, *P<0.05, **P<0.01 vs Saline; ^†P<0.05, ^††P<0.01vs Lipid. (i) IL-6 in media of C2C12 myotubes exposed to PDX for 2 h. (j) IL-6 mRNA expression in C2C12 myotubes exposed to PDX for 2 h. (k) Immunoblots for pAMPK thr172 and total AMPK in C2C12 myotubes exposed to PDX for 2 h. Quantification of densitometry analyses for immunoblots are shown below the representative gels. Lanes were run on the same gel but were noncontiguous. Data are mean±SEM of three independent experiments. *P<0.05, **P<0.01 vs vehicle. (I) IL-6 in media of C2C12 myotubes exposed to Veh, or 100 nM of PDX, PD1, 8(S),15(s)-DiHETE, or RvD1. Data are mean±SEM of three independent experiments. **P<0.01 vs vehicle. (m) IL-6 in media of J77A4 macrophages treated with Veh, LPS, or PDX (10, 100, or 1000 nM) for 30 min, 2 h and 8 h. (n) Immunoblots for pAMPK thr172 and total AMPK in C2C12 myotubes exposed to PDX for 2h. Quantification of densitometry analyses for immunoblots are shown below the representative gels. Data are mean±SEM of three independent experiments. **P<0.01 vs vehicle.
In order to address the dichotomy in PDX's effect on IL-6 release from muscle versus macrophages, we next examined the impact of PDX on IL-6 release from cultured macrophages in the absence of palmitate stimulation (FIG. 5m). […] Since activation of AMPK represses inflammatory cytokine production in macrophages^19 this may explain the opposing effect of PDX on IL-6 expression and release in skeletal myotubes and activated macrophages.

T37i brown adipocytes = assay: IL-6 release from cultured brown adipocytes; assay type: cell-based; settings: norepinephrine 1 μM as adrenergic stimulus
Text: Since brown adipose tissue was recently shown to regulate glucose homeostasis via secretion of IL-6^20 we also examined whether PDX might raise circulating IL-6 by stimulating brown fat.

IL-6 null (KO) mice = assay: second paired saline/lipid infusion 2.5 mU/kg/min hyperinsulinemic-euglycemic clamp, IL-6 null mice; assay type: in vivo
Procedure: For the second paired lipid infusion HIE clamp study, 10 week old male B6.129S2-ll6^tmkopf/J (IL-6 KO) and control C57BL/6J (WT) mice from Jackson Labs were used. Mice from each genetic background were randomly assigned to saline-vehicle, saline-PDX, lipid-vehicle and lipid-PDX groups. The lipid-infusion clamp study was performed as described above, except the clamp was performed with a 2.5 mU·kg^−1·min^−1 insulin infusion as per^29.
To confirm the involvement of IL-6 in the beneficial effects of PDX we performed a second round of paired lipid infusion hyperinsulinemic-euglycemic clamp studies in IL-6 null (KO) mice alongside wild-type (WT) C57BL/6J control mice. Saline-infused mice treated with PDX were added to the study to ascertain whether PDX also improves glucose metabolism in insulin-sensitive mice. To ensure detection of potential differences between insulin-sensitive saline-infused animals we performed 2.5mU/kg/min rather than 4 mU/kg/min clamps.

db/db mice = assay: 5 days PDX treatment of db/db mice with hyperinsulinemic-isoglycemic clamp; assay type: in vivo
Procedure: In order to determine whether these beneficial effects of PDX could be sustained or improved with a prolonged treatment regimen, we administered 2 μg of PDX or vehicle (i.v.) twice daily to 17 week old db/db for 5 days leading up to the clamp experiment (FIGS. 10 and 11).
The hyperinsulinemic-isoglycemic clamp (FIG. 11) is the gold-standard for evaluating insulin stimulated glucose metabolism in viva Animals were fasted around 8 am (t=−300 min), and received a first injection of either PDX (2 μg/mice) or the vehicle (10% Ethanol) at t=−240 min. A second injection was given at time −90 min, after which the clamp procedure per se was started. This procedure consisted of a 90-min tracer equilibration period (t=−90 to 0 min) followed by a 120 min hyperinsulinemic isoglycemic clamp (t=0 to 120 min). A 50 μl blood sample was obtained at t=−90 min to determine radioactive-free plasma activity. A 0.5 μCi bolus of [3-3H]-glucose was given at t=−90 min followed by a 0.033 μCi/min infusion for 90 min (t=−90 to 0 min). At t=−30, -20, -10 and 0 min, blood samples were taken for the assessment of basal glucose and glucose specific activity. The insulin infusion began at t=0 min with a primed-continuous infusion of human insulin (16 mU/kg bolus followed by a 4 mU/kg/min infusion), to achieve plasma insulin concentrations 2.5-fold over basal concentrations. At t=0 min, the [3-3H]-glucose infusion was increased to 0.066 μCi/min for the remainder of the experiment to minimize changes in specific activity from the equilibration period. Isoglycemia was maintained by measuring blood glucose every 10 min starting at t=0 min and infusing 20% glucose as necessary to preserved the blood glucose at basal levels. Blood samples were taken every 10 min from t=90 to 120 min for the determination of glucose specific activity.

[1] = saline and lipid-infused KO mice

CC/C=C\C[C@H](O)/C=C/C=C\C=C\[C@@H](O)C/C=C\C/C=C\CCC(=O)O [PDX, 10S,17S-dihydroxy-docosa-4Z,7Z,11E,13Z,15E,19Z-hexaeonic acid]
AMPK phosphorylation (J77A4 macrophages; P<0.01): promote AMPK phosphorylation | IL-6 mRNA expression (J77A4 macrophages; no palmitate): does not stimulate | IL-6 release (J77A4 macrophages; no palmitate, PDX 10, 100, or 1000 nM for 30 min, 2 h and 8 h): does not stimulate | release of IL-6 (T37i brown adipocytes): not able to stimulate | activation of hepatic STAT-3 (IL-6 null (KO) mice; KO mice, saline and lipid-infused): completely absent | lipid-induced elevations in circulating TNFa (IL-6 null (KO) mice; lipid-infused IL-6 KO mice, P<0.001): potently suppress | effect on hepatic insulin action (IL-6 null (KO) mice; lipid-infused KO mice): only partially lost | effect on peripheral insulin action (IL-6 null (KO) mice; lipid-infused KO mice): completely absent | effects on suppression of Ppargc1, Pck1 and G6Pc (IL-6 null (KO) mice; lipid-infused KO mice): entirely absent | stimulatory effect on AMPK phosphorylation (muscle) (IL-6 null (KO) mice; lipid-infused KO mice): fully maintained | IL-6 in skeletal muscle (IL-6 null (KO) mice; [1]): failed to raise | effect on pre-clamp glycemia (IL-6 null (KO) mice; [1]): completely absent | enhancement of GIR (IL-6 null (KO) mice; [1]): this was not the case | effect on hepatic insulin action (IL-6 null (KO) mice; saline-infused KO mice): completely absent | effect on transcriptional repression of PEPCK (IL-6 null (KO) mice; saline-infused KO mice): completely absent | improved suppression of G6Pc (IL-6 null (KO) mice; saline-infused KO mice): this was not the case | total body weight (db/db mice; 2 μg PDX i.v. twice daily for 5 days vs vehicle): no significant changes | IL6 levels in eWAT (db/db mice; 5 day PDX treatment): no such increase | fasting blood glucose (db/db mice; 5 day PDX treatment): not affected | plasma IL-6 (db/db mice; 5 day PDX treatment): trend for increased | plasmatic insulin levels (db/db mice; 5 day PDX treatment): not affected | cytokines content in the eWAT (db/db mice; PDX-treated vs vehicle-treated): no difference | insulin sensitivity (glucose infusion rate, GIR) (db/db mice; after the 5 days PDX treatment): clear improvement | weight of tissues (iWAT, eWAT, liver, gastrocnemius, pancreas) (db/db mice; end of the 5 days treatment): No significant changes | skeletal muscle IL-6 (db/db mice; gastrocnemius, P<0.05): elevated
